Laboratory results from ChEMBL document CHEMBL1130555, “Synthesis and biological activity of novel 3-trifluoromethyl taxoids” (Bioorg Med Chem Lett, 1997).
pIC50: −log10 of the molar value.

What was measured:
Assay type in all cases: functional, cell-based
A549 = assay: Cytotoxicity was evaluated against A549 non-small cell lung carcinoma human cancer cell line
HT-29 = assay: Cytotoxicity was evaluated against HT-29 colon carcinoma human cancer cell line
MCF7R = assay: Cytotoxicity was evaluated against MCF7-R (mammary carcinoma 180-fold resistant to doxorubicin, expressing MDR phenotype) human breast cancer cell line
MCF7 = assay: Cytotoxicity was evaluated against MCF-7 mammary carcinoma human breast cancer cell line
A121 = assay: Cytotoxicity was evaluated against A121 ovarian carcinoma human cancer cell line

Row | SMILES | pIC50 (A549) | pIC50 (HT-29) | pIC50 (MCF7R) | pIC50 (MCF7) | pIC50 (A121)
1 | CCC(=O)O[C@H]1C(=O)[C@@]2(C)[C@H]([C@H](OC(=O)c3ccccc3)[C@]3(O)C[C@H](OC(=O)[C@H](O)[C@@H](NC(=O)OC(C)(C)C)C(F)(F)F)C(C)=C1C3(C)C)[C@]1(OC(C)=O)CO[C@@H]1C[C@@H]2O | 9.52 | 9.40 | 7.85 | 9.52 | 9.52
2 | CC(=O)O[C@@]12CO[C@@H]1C[C@H](O)[C@@]1(C)C(=O)[C@H](OC(=O)C3CC3)C3=C(C)[C@@H](OC(=O)[C@H](O)[C@@H](NC(=O)OC(C)(C)C)C(F)(F)F)C[C@@](O)([C@@H](OC(=O)c4ccccc4)[C@H]21)C3(C)C | 9.40 | 9.30 | 7.80 | 9.30 | 9.40
3 | COC(=O)O[C@H]1C(=O)[C@@]2(C)[C@H]([C@H](OC(=O)c3ccccc3)[C@]3(O)C[C@H](OC(=O)[C@H](O)[C@@H](NC(=O)OC(C)(C)C)C(F)(F)F)C(C)=C1C3(C)C)[C@]1(OC(C)=O)CO[C@@H]1C[C@@H]2O | 9.70 | 9.40 | 7.68 | 9.40 | 9.52
4 | CC(=O)O[C@@]12CO[C@@H]1C[C@H](O)[C@@]1(C)C(=O)[C@H](O)C3=C(C)[C@@H](OC(=O)[C@H](O)[C@@H](NC(=O)OC(C)(C)C)C(F)(F)F)C[C@@](O)([C@@H](OC(=O)c4ccccc4)[C@H]21)C3(C)C | 9.36 | 9.19 | 6.81 | 9.36 | 8.94
5 | CC(=O)O[C@H]1C(=O)[C@@]2(C)[C@H]([C@H](OC(=O)c3ccccc3)[C@]3(O)C[C@H](OC(=O)[C@H](O)[C@@H](NC(=O)OC(C)(C)C)C(F)(F)F)C(C)=C1C3(C)C)[C@]1(OC(C)=O)CO[C@@H]1C[C@@H]2O | 9.70 | 9.40 | 6.81 | 9.22 | 9.52
6 | CCCCC(=O)O[C@H]1C(=O)[C@@]2(C)[C@H]([C@H](OC(=O)c3ccccc3)[C@]3(O)C[C@H](OC(=O)[C@H](O)[C@@H](NC(=O)OC(C)(C)C)C(F)(F)F)C(C)=C1C3(C)C)[C@]1(OC(C)=O)CO[C@@H]1C[C@@H]2O | 9.10 | 8.85 | 7.59 | 9.15 | 9.15
7 | CC(=O)O[C@@]12CO[C@@H]1C[C@H](O)[C@@]1(C)C(=O)[C@H](OC(=O)CC(C)(C)C)C3=C(C)[C@@H](OC(=O)[C@H](O)[C@@H](NC(=O)OC(C)(C)C)C(F)(F)F)C[C@@](O)([C@@H](OC(=O)c4ccccc4)[C@H]21)C3(C)C | 9.30 | 9.22 | 7.92 | 9.30 | 9.30
8 | CC(=O)O[C@@]12CO[C@@H]1C[C@H](O)[C@@]1(C)C(=O)[C@H](OC(=O)N3CCOCC3)C3=C(C)[C@@H](OC(=O)[C@H](O)[C@@H](NC(=O)OC(C)(C)C)C(F)(F)F)C[C@@](O)([C@@H](OC(=O)c4ccccc4)[C@H]21)C3(C)C | 9.40 | 9.40 | 7.32 | 9.40 | 9.30
9 | CC(=O)O[C@@]12CO[C@@H]1C[C@H](O)[C@@]1(C)C(=O)[C@H](OC(=O)N(C)C)C3=C(C)[C@@H](OC(=O)[C@H](O)[C@@H](NC(=O)OC(C)(C)C)C(F)(F)F)C[C@@](O)([C@@H](OC(=O)c4ccccc4)[C@H]21)C3(C)C | 9.70 | 9.40 | 7.77 | 9.22 | 9.52
